Laboratory results reported in patent US20140315973A1, “PARP-1 INHIBITORS” (priority 2010, published 2014).

How the values were obtained:
HBV core promoter = assay: Dual-luciferase reporter assay of HBV core promoter; assay type: cell-based, HBV genotype A
Description: The HBV core promoter deletions were cloned using a multi-step strategy. First, the wild-type core promoter from HBV genotype A was inserted via KpnI and HindIII sites on the PGL3 Basic vector. Using this as the template, PGLF (5′ TCCCCAGTGCAAGTGCAGG) was used with reverse primer BX, where “X” denotes the deletion number and contains the nucleotide sequence flanking the 3′ end of the deletion. This amplifies the 5′ half of mutant core promoter. Primer CX containing nucleotide sequences flanking the 5′ end of the deletion site was then used with reverse primer PGLR (5′ […]) to synthesize the 3′ end of the mutant promoter. The 2 halves were annealed via their complementary sequences and amplified using primers PGLF and PGLR. PCR was performed using the Expand High Fidelity PCR System (Roche), and ran on 1% agarose gels in TBE buffer. DNA of appropriate sizes were extracted using the Qiaquick Gel Extraction Kit (Qiagen), double-digested with enzymes from New England BioLabs, then annealed using the Quick Ligation Kit.
Assays were performed with the Dual-Luciferase® Reporter Assay System (Promega) with modifications. HepG2 cells were seeded 18 hours prior to transfection in 24-well plates in triplicates at a density of 1.5×10^5 cells per well. Transfection was performed with 2.2 μl Lipofectamine 2000 (Invitrogen), 1 μg of PGL3 Basic construct plasmid and 15 ng of Renilla-luciferase construct per well. Additionally, 250 ng of over-expression plasmids for PARP-1 mutants were used when indicated. Transfected cells were lysed with 60 μl lysis buffer at 37° C. on a shaking incubator for 20 minutes after washing thrice with ice-cold PBS 30 hours post-transfection and 50 μl of the lysate was transferred on ice into black 96-well plates with clear bottoms (Corning), and luminescence measured with the GloMax® Multi-Microplate Multimode Reader (Promega).

HBV = HBV transcripts in HepG2 cells transfected with HBV-RFP; assay type: cell-based, HBV genotype A; conditions: 15 μM, added 24 hours after transfection, 48 hours later
Description: Full-length replicative HBV genotype A (approximately 1.1X HBV genome starting from nucleotide 1535, ending at nucleotide 1930) driven by its own core promoter cloned from another construct and inserted into pcDNA3.1+ via the MfeI and MluI restriction sites, […] of the CMV promoter. Primers used are as follows: […]
(§1) The coding sequence for red fluorescent protein (RFP) was cut from the pTurboFP635N (Evrogen) and inserted into the pcDNA3.1+ vector containing the HBV construct into the MCS via KpnI and NotI sites.

HepG2 cells = assay: Viable HBV-RFP transfected HepG2 cells; assay type: cell-based; conditions: 15 μM, 72 hours after PARP inhibition
Description: as §1

breast or ovarian cancer = conditions: cited from earlier work

NC(=O)c1cccc(N)c1 [3-AB, 3-aminobenzamide]
transcription (luciferase expression) at wild-type HBV core promoter (HBV core promoter; HepG2, inhibitor added 24 hours after transfection): increased transcription at the HBV core promoter in a dose-dependent manner | luciferase expression, mutant HBV core promoter with deletion of the PARP-1 binding site (Del-PARP1 motif) (HBV core promoter; HepG2 and Huh-7): negligible effect | luciferase expression, wild-type HBV core promoter (HBV core promoter; Huh-7): increased luciferase expression

CN(C)CC(=O)Nc1ccc2[nH]c(=O)c3ccccc3c2c1 [PJ-34]
increase in relative amounts of HBV transcripts (HBV): more than 3 fold | relative percentage of viable cells that were HBV-transfected vs DMSO control (HepG2 cells): significantly higher

O=C(c1cc(Cc2n[nH]c(=O)c3ccccc23)ccc1F)N1CCN(C(=O)C2CC2)CC1 [olaparib]
durable objective antitumor activity (breast or ovarian cancer; 60 patients, including 22 BRCA mutation carriers): observed only in confirmed carriers of a BRCA1 or BRCA2 mutation | BRCA carriers with ovarian, breast, or prostate cancers showing a clinical benefit (breast or ovarian cancer; Twelve of 19 BRCA carriers): 63% | side-effect profile (breast or ovarian cancer; phase 1, orally active): acceptable side-effect profile
